Like-named read-outs stand apart in the source and are kept apart here.
Legend:
Type in all cases: cell-based
A549/ATCC = test: NCI in vitro cytotoxicity (SRB, 48 h), Non-small cell lung panel; conditions: Homo sapiens, 48 h exposure
EKVX = test: as above; conditions: Homo sapiens, 48 h exposure
NCI-H226 = test: as above; conditions: Homo sapiens, 48 h exposure
NCI-H522 = test: as above; conditions: Homo sapiens, 48 h exposure
COLO 205 = test: NCI in vitro cytotoxicity (SRB, 48 h), Colon panel; conditions: Homo sapiens; COLO 205, Colon; 48 h exposure
HCT-116 = test: NCI in vitro cytotoxicity (SRB, 48 h), Colon panel; conditions: Homo sapiens; for IC50: HCT-116, HCT116, Table 4, read-out: Comparative efficacy
HCT-15 = test: NCI in vitro cytotoxicity (SRB, 48 h), Colon panel; conditions: Homo sapiens; HCT-15, Colon; 48 h exposure
HT29 = test: NCI in vitro cytotoxicity (SRB, 48 h), Colon panel; conditions: Homo sapiens, HT-29, 48 h exposure
KM12 = test: NCI in vitro cytotoxicity (SRB, 48 h), Colon panel; conditions: Homo sapiens, 48 h exposure
SW-620 = test: NCI in vitro cytotoxicity (SRB, 48 h), Colon panel; conditions: Homo sapiens; SW-620, Colon; 48 h exposure
SF-268 = test: NCI in vitro cytotoxicity (SRB, 48 h), CNS panel; conditions: Homo sapiens; SF-268, CNS; 48 h exposure
SF-295 = test: NCI in vitro cytotoxicity (SRB, 48 h), CNS panel; conditions: Homo sapiens; SF-295, CNS; 48 h exposure
U251 = test: NCI in vitro cytotoxicity (SRB, 48 h), CNS panel; conditions: Homo sapiens, U-251, 48 h exposure
IGROV1 = test: NCI in vitro cytotoxicity (SRB, 48 h), Ovarian panel; conditions: Homo sapiens, IGROV-1; for IC50: IGROV1, Table 4, read-out: Comparative efficacy
OVCAR-3 = test: as above; conditions: Homo sapiens; OVCAR-3, Ovarian; 48 h exposure
OVCAR-4 = test: as above; conditions: Homo sapiens; OVCAR-4, Ovarian; 48 h exposure
OVCAR-5 = test: as above; conditions: Homo sapiens
NCI/ADR-RES = test: as above; conditions: Homo sapiens, 48 h exposure
786-0 = test: NCI in vitro cytotoxicity (SRB, 48 h), Renal panel; conditions: Homo sapiens; 786-0, Renal; 48 h exposure
ACHN = test: NCI in vitro cytotoxicity (SRB, 48 h), Renal panel; conditions: Homo sapiens, 48 h exposure
CAKI-1 = test: NCI in vitro cytotoxicity (SRB, 48 h), Renal panel; conditions: Homo sapiens; for GI50: CAKI-1, Renal, 48 h exposure; for IC50: CAKI-1, Table 4, read-out: Comparative efficacy
SN12C = test: NCI in vitro cytotoxicity (SRB, 48 h), Renal panel; conditions: Homo sapiens, 48 h exposure
TK-10 = test: NCI in vitro cytotoxicity (SRB, 48 h), Renal panel; conditions: Homo sapiens; TK-10, Renal; 48 h exposure
UO-31 = test: NCI in vitro cytotoxicity (SRB, 48 h), Renal panel; conditions: Homo sapiens; UO-31, Renal; 48 h exposure
PC-3 = test: NCI in vitro cytotoxicity (SRB, 48 h), Prostate panel; conditions: Homo sapiens; PC-3, Prostate; 48 h exposure
DU-145 = test: as above; conditions: Homo sapiens; DU-145, Prostate; 48 h exposure
HS 578T = test: NCI in vitro cytotoxicity (SRB, 48 h), Breast panel; conditions: Homo sapiens, 48 h exposure
MDA-MB-468 = test: as above; conditions: Homo sapiens; MDA-MB-468, Breast; 48 h exposure
LOX IMVI = test: NCI in vitro cytotoxicity (SRB, 48 h), Melanoma panel; conditions: Homo sapiens, 48 h exposure
MALME-3M = test: as above; conditions: Homo sapiens, 48 h exposure
M14 = test: as above; conditions: Homo sapiens, 48 h exposure
MDAMB-435 = test: as above; conditions: Homo sapiens, MDA-MB-435; MDAMB-435, Melanoma; 48 h exposure
SK-MEL-28 = test: as above; conditions: Homo sapiens; SK-MEL-28, Melanoma; 48 h exposure
SK-MEL-5 = test: as above; conditions: Homo sapiens; SK-MEL-5, Melanoma; 48 h exposure
UACC-62 = test: as above; conditions: Homo sapiens; UACC-62, Melanoma; 48 h exposure
Colon cancer cell lines = test: NCI in vitro cytotoxicity, whole panel; conditions: Homo sapiens; for CC50: read-out: Log10 LC50 (converted)
CNS cancer cell lines = test: NCI in vitro cytotoxicity, whole panel; conditions: Homo sapiens; for CC50: read-out: Log10 LC50 (converted)
[1] = tested on: Prostate cancer cell lines; test: NCI in vitro cytotoxicity, whole panel; conditions: Homo sapiens; for LC50: read-out: Log10 LC50 (converted)
[2] = OVCAR-5, Ovarian, 48 h exposure
[3] = Colon, average of six to eight cell lines, read-out: Log10 GI50 (converted)
[4] = Colon, average of six to eight cell lines
[5] = exposure period of at least 48 hrs, read-out: GI50, range over colon cell lines
[6] = CNS cell, exposure period of at least 48 hrs, read-out: GI50, range over CNS cell lines
[7] = CNS, average of six to eight cell lines, read-out: Log10 GI50 (converted)
[8] = CNS, average of six to eight cell lines
[9] = Prostate cell, exposure period of at least 48 hrs, read-out: GI50, range over prostate cell lines
[10] = Prostate, average of the panel's cell lines, read-out: Log10 GI50 (converted)
[11] = Prostate, average of the panel's cell lines

`COc1ccc(-c2nc3sccn3c2/C=C/C(=O)c2cc(OC)c(OC)c(OC)c2)cc1` [Compound 7a, (E)-3-(6-(4-methoxyphenyl)imidazo[2,1-b]thiazol-5-yl)-1-(3,4,5-trimethoxyphenyl) prop-2-en-1-one] was tested, and the GI50 (A549/ATCC) was 2210 nM, the GI50 (EKVX) was 3120 nM and the GI50 (NCI-H226) was 2580 nM. For the same molecule, the GI50 (NCI-H522) was 1970 nM, the GI50 (COLO 205) was 2520 nM and the IC50 (HCT-116) was 1880 nM. For the same molecule, the GI50 (HCT-116; HCT-116, Colon, 48 h exposure) was 1880 nM, the GI50 (HCT-116; HCT-116, colon) was 1880 nM and the GI50 (HCT-15) was 3450 nM. The GI50 (HT29) was 3120 nM, the GI50 (KM12) was 2650 nM and the GI50 (SW-620) was 3160 nM. The GI50 (SF-268) was 2890 nM, the GI50 (SF-295) was 2730 nM and the GI50 (U251) was 3050 nM. For the same molecule, the GI50 (IGROV1; IGROV1, Ovarian, 48 h exposure) was 210 nM, the GI50 (IGROV1; IGROV1, ovarian) was 210 nM and the IC50 (IGROV1) was 210 nM. It also gave a GI50 (OVCAR-3) of 2230 nM, a GI50 (OVCAR-4) of 4050 nM and a GI50 (OVCAR-5; [2]) of 1990 nM. It also gave a GI50 (OVCAR-5; OVCAR-5, ovarian) of 1990 nM, a GI50 (NCI/ADR-RES) of 2570 nM and a GI50 (786-0) of 2580 nM. The GI50 (ACHN) was 4080 nM, the GI50 (CAKI-1) was 1200 nM and the IC50 (CAKI-1) was 1200 nM. It also gave a GI50 (SN12C) of 2880 nM, a GI50 (TK-10) of 5040 nM and a GI50 (UO-31) of 1120 nM. For the same molecule, the GI50 (PC-3) was 3100 nM, the GI50 (DU-145) was 2620 nM and the GI50 (HS 578T) was 1900 nM. The GI50 (MDA-MB-468) was 2960 nM, the GI50 (LOX IMVI) was 2420 nM and the GI50 (MALME-3M) was 5420 nM. The GI50 (M14) was 2330 nM, the GI50 (MDAMB-435) was 2850 nM and the GI50 (SK-MEL-28) was 4110 nM. For the same molecule, the GI50 (SK-MEL-5) was 1300 nM, the GI50 (UACC-62) was 2080 nM and the GI50 (Colon cancer cell lines; [3]) was 2630 nM. It also gave a CC50 (Colon cancer cell lines; [4]) of 72400 nM, a GI50 (Colon cancer cell lines; [5]) of 1770 to 3450 nM and a GI50 (CNS cancer cell lines; [6]) of 1660 to 3540 nM. The GI50 (CNS cancer cell lines; [7]) was 2630 nM, the CC50 (CNS cancer cell lines; [8]) was ≥ 100000 nM and the GI50 [1, 9] was 2620 to 3100 nM. For the same molecule, the GI50 [1, 10] was 2880 nM and the LC50 [1, 11] was ≥ 100000 nM.

Work on `COc1cc(C(=O)/C=C/c2c(-c3ccc(F)cc3)nc3sccn23)cc(OC)c1OC` [Compound 7e, (E)-3-(6-(4-fluorophenyl)imidazo[2,1-b]thiazol-5-yl)-1-(3,4,5-trimethoxyphenyl)prop-2-en-1-one] yielded a GI50 (A549/ATCC) of 2090 nM, a GI50 (EKVX) of 2740 nM and a GI50 (NCI-H226) of 1890 nM. The GI50 (NCI-H522) was 2320 nM, the GI50 (COLO 205) was 2790 nM and the IC50 (HCT-116) was 2330 nM. The GI50 (HCT-116; HCT-116, Colon, 48 h exposure) was 2330 nM, the GI50 (HCT-15) was 2940 nM and the GI50 (HT29) was 2840 nM. It also gave a GI50 (KM12) of 2300 nM, a GI50 (SW-620) of 2990 nM and a GI50 (SF-268) of 2520 nM. The GI50 (SF-295) was 1800 nM, the GI50 (U251) was 2180 nM and the GI50 (IGROV1; IGROV1, Ovarian, 48 h exposure) was 1040 nM. The GI50 (IGROV1; IGROV1, ovarian) was 1040 nM, the IC50 (IGROV1) was 1040 nM and the GI50 (OVCAR-3) was 2160 nM. The GI50 (OVCAR-4) was 3780 nM, the GI50 (OVCAR-5; [2]) was 1920 nM and the GI50 (NCI/ADR-RES) was 2100 nM. The GI50 (786-0) was 2510 nM, the GI50 (ACHN) was 2960 nM and the GI50 (CAKI-1) was 40 nM. The IC50 (CAKI-1) was 40 nM, the GI50 (SN12C) was 1880 nM and the GI50 (TK-10) was 5810 nM. For the same molecule, the GI50 (UO-31) was 2030 nM, the GI50 (PC-3) was 3430 nM and the GI50 (DU-145) was 2450 nM. The GI50 (HS 578T) was 2050 nM, the GI50 (MDA-MB-468) was 3170 nM and the GI50 (LOX IMVI) was 1850 nM. For the same molecule, the GI50 (MALME-3M) was 8270 nM, the GI50 (M14) was 2750 nM and the GI50 (MDAMB-435) was 1820 nM. It also gave a GI50 (SK-MEL-28) of 4190 nM, a GI50 (SK-MEL-5) of 1450 nM and a GI50 (UACC-62) of 1820 nM. It also gave a GI50 (Colon cancer cell lines; [3]) of 2630 nM, a CC50 (Colon cancer cell lines; [4]) of 38000 nM and a GI50 (Colon cancer cell lines; [5]) of 2110 to 2990 nM. The GI50 (CNS cancer cell lines; [6]) was 1740 to 3730 nM, the GI50 (CNS cancer cell lines; [7]) was 2340 nM and the CC50 (CNS cancer cell lines; [8]) was 52500 nM. The GI50 [1, 9] was 2450 to 3430 nM, the GI50 [1, 10] was 2950 nM and the LC50 [1, 11] was ≥ 100000 nM.

Source: US8916711B2, “Imidazothiazole-chalcone derivatives as potential anticancer agents and process for the preparation thereof” (Council of Scientific and Industrial Research, priority 2009, dated 2014)
